Measurements published in patent US20230203485A1, “METHODS FOR MODULATING MHC-I EXPRESSION AND IMMUNOTHERAPY USES THEREOF” (Dana-Farber Cancer Institute, Inc., priority 2020, published 2023).

Assays:
[1] = system: HLA class I bound peptides of MCC cell lines; test: HLA class I immunoprecipitation and LC-MS/MS immunopeptidome of MCC tumors and cell lines +/- IFNγ; assay type: cell-based, human
Source text: CL=cell line (left). Correlation heatmap of peptide sequences between MCC lines at baseline and after IFN-γ treatment in motif space (right).
HLA molecules are immunoprecipitated from tumor and cell line material, peptides are eluted from HLA complex and analyzed by LC-MS/MS. After database searching, peptides are assigned to their most likely allele by prediction in HLAthena.
Up to 40 million MCC cells were immunoprecipitated. Briefly, MCC cells were harvested and lysed in ice-cold lysis buffer containing […] (pH 8.0), 1 mM EDTA (pH 8.0), 0.1M sodium chloride, Triton X-100, 0.06M octyl 3-d-glucopyranoside, 100 U/mL DNAse I, 1 mM phenylmethanesulfonyl fluoride (all from Sigma Aldrich), protease inhibitor cocktail (Roche Diagnostics, Indianapolis, Ind.). Cell lysates were centrifuged at 12,700 rpm at 4° C. for 22 min. […] Peptides of up to three IPs were combined, acid eluted, and analyzed using LC/MS/MS as described previously (Abelin, Keskin Immunity). […] Peptides were eluted in a 6-30% gradient (EasyLC 1000 or 1200, ThermoFisher Scientific) and analyzed on a QExactive Plus or Fusion Lumos (ThermoFisher Scientific). […]
For detection of the large T antigen peptide, 3 Ips of a 367 Cell line treated with IFNγ were pooled, acid eluted, fractionated using stage tip basic reverse phase separation and fractions were analyzed on a Fusion Lumos equipped with a FAIMSpro interface (Klaeger et al., in preparation).
Mass spectra were interpreted using Spectrum Mill software package v7.1 pre-Release (Agilent Technologies, Santa Clara, Calif.). […] MS/MS spectra were searched against a protein sequence database that contained 98,298 entries, including all UCSC Genome Browser genes with hg19 annotation of the genome and its protein coding transcripts (63,691 entries), common human virus sequences (30,181 entries), recurrently mutated proteins observed in tumors from 26 tissues (4,167 entries), 264 common laboratory contaminants as well as protein sequences containing somatic mutations detected in MCC cell lines. […]

[2] = system: HLA I surface expression on MCC cell lines; test: Flow cytometry for HLA-I surface expression (anti-HLA-ABC, W6/32) in MCC lines at baseline and after interferon or MEK inhibitor treatment; assay type: cell-based, human
Experimental: The overlaid black line plot indicates the percentage of tumor cells that stained positive for HLA-I by IHC of the corresponding original tumor (right y-axis).
Representative histogram plots show cells stained with anti-HLA class I or isotype antibodies. The experiment was performed in the MCPyV− line MCC-290 (left) and the MCPyV+ line MCC-301 (right).
Cells were dissociated with Versene and incubated with 5 μL Human TruStain FcX (Fc receptor blocking solution; Biolegend, Dedham, Mass.) per million cells in […] at room temperature for 10 min. Fluorochrome-conjugated antibodies or respective isotype controls were immediately added and incubated for another 30 min at 4° C. Cells were then washed once with PBS and resuspended in PBS containing 4% paraformaldehyde and analyzed on LSR Fortessa cytometers. Additional steps were described for individual experiments as below.

Question: For “IFN-γ: interferon gamma used to stimulate MCC cell lines”, which “abundance of class I bound peptides, median fold increase” value ([1]; across 4 cell lines, after IFN-γ stimulation vs baseline) is on record?
Answer: 25 fold

Question: And the “frequencies of peptides mapping to each HLA allele” value ([1]; cell lines exposed or not to IFN-γ)?
Answer: increase in HLA-B-presented peptides

Question: For “IFN-y: type II interferon, recombinant human, used to treat MCC cells”, which “HLA I surface expression, median fold increase by MFI” value ([2]; IFN-y exposure, the 8 inducible of 11 MCC lines, pan-class I anti-HLA-ABC antibody, median) is on record?
Answer: 5.7 fold

Question: What about the “HLA I surface expression, range of fold increase by MFI” value ([2]; IFN-y exposure, the 8 inducible of 11 MCC lines, range) of the same substance?
Answer: 2.5-12.4 fold

Question: And the “HLA I surface expression response” value ([2]; three lines: MCC-336, -350, -358)?
Answer: not responsive

Question: And the “number of detected peptides presented on HLA Class I” value ([1]; tumor derived cell lines, FIG. 3B)?
Answer: increased
